Four substances from patent publication US8470765B2, “Polypeptides and antibacterial or antiseptic use of same” (AnGes MG, Inc., priority 2009, dated 2013) can be followed below.

Series [1] deals with Salmonella enteritidis IID 604. The conditions noted are these: IID 604.
The test system of series [2] is Bacillus subtilis NBRC3134.
Series [3] concerns Actinobacillus actinomycetemcomitans JCM2434.
Series [4] relates to Aspergillus niger NBRC 9455.
Series [5] deals with Cryptococcus neoformans IFM 46660.
Another series has as its system Candida krusei NBRC1395. Particulars: NBRC1395.
In series [6] the test system is Acinetobacter baumanni JCM6841.
The test system of series [7] is Trichophyton rubrum NBRC9185.
Series [8] relates to Staphylococcus aureus ATCC29213. The series is described as follows: ATP Assay (viability at 3 hours), Table 6. Format: cell-based. Particulars: 3 h, 5 μg/mL. The method in brief:
(§1)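 Log-phase bacteria at about 10^5 CFU/mL final in Mueller-Hinton broth were exposed 3 h at 37 °C to peptide (solution prepared at 10 μg/mL before 1:1 mixing with inoculum). ATP (BacTiter-Glo luminescence) relative to untreated wells defined viability; two independent experiments.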

In series [9] the test system is Pseudomonas aeruginosa ATCC 27853. The series is described as follows: ATP Assay (viability at 3 hours), Table 6. It counts as cell-based. The conditions noted are these: 3 h, 5 μg/mL. The essentials:
as §1

The subject of series [10] is Escherichia coli ATCC 25922. The series is described as follows: ATP Assay (viability at 3 hours), Table 6. Format: cell-based. The conditions noted are these: 3 h, 5 μg/mL. The method in brief:
as §1

In series [11] the test system is Streptococcus pyogenes JCM5674.
The subject of series [12] is Alternaria alternata JCM5800. Particulars: JCM5800.
Series [13] deals with Enterobacter aerogenes JCM 1235. The series is described as follows: microbe, parasite or virus in culture. It counts as cell-based. The method in brief: (§2)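 Inoculum: 4–6 h subculture, turbidity matched to McFarland #0.5, diluted to ~10^5 CFU/mL final. Peptide dilutions in MHB from 128 μg/mL; 37° C, 16–24 h. MIC = lowest concentration inhibiting visible growth; ≥2 independent runs per strain.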

The subject of series [14] is Staphylococcus aureus ATCC29213. The series is described as follows: microbe, parasite or virus in culture. It counts as cell-based. The method in brief: as §2
Series [15] concerns Pseudomonas aeruginosa ATCC 27853. The series is described as follows: microbe, parasite or virus in culture. Format: cell-based. The method in brief:
as §2

Series [16] has as its system Staphylococcus epidermidis JCM 2414. The series is described as follows: microbe, parasite or virus in culture. Format: cell-based. The conditions noted are these: Table 4; two tests, first/second value where not identical. The essentials: as §2
Series [17] relates to Enterobacter cloacae JCM 1232. Format: cell-based. The procedure:
Bacteria (Escherichia coli ATCC 25922, Pseudomonas aeruginosa ATCC 27853, Staphylococcus aureus ATCC29213, Klebsiella pneumoniae JCM 1662, Enterobacter cloacae JCM 1232, Enterobacter aerogenes JCM 1235 and Staphylococcus epidermidis JCM 2414) were inoculated to Mueller-Hinton broth: MHB or LB medium, and cultured at a temperature and period suited for each strain. From the thus obtained colonies, each strain was inoculated to a fresh liquid medium and cultured for 16 to 20 hours. Then an aliquot having a volume (10 to 50 appropriate to each strain was inoculated to a fresh liquid medium and cultured for 4 to 6 hours, followed by the measurement of the absorbance at 600 nm. After comparing the turbidity with McFarland #0.5, the resultant was diluted with a medium. Each strain was added to about 10^5 CFU/mL (final concentration). Each of the peptide solutions to be tested was diluted with MHB to obtain a solution of 128 μg/mL. […] As controls, tobramycin (TOB: aminoglucoside antibiotic), oxacillin (OX:β-lactam antibiotic), meropenem (MEPM: carbapenem antibiotic) and ciprofloxacin (new quinolone antibiotic) were used. […] To a 96-well microtiter plate, 0.1 mL of the inoculation solution and 0.1 mL of the peptide- or positive control-containing medium having the respective concentration were added, and cultured at 37° C. for 16 to 24 hours (or a time period suited for the growth of the respective strain). The well not containing the sample was used as a negative control. After the culturing, the growth was visually observed, and the minimum concentration at which the growth was inhibited was defined as the minimum growth inhibition concentration (MIC). The medium used in this test for bacteria was Mueller-Hinton broth. Independent experiments were carried out twice or more for each strain.

Series [18] concerns Rhizopus oryzae NBRC 31005.
The mark [19] stands for this setting: Table 4, two tests, first/second value where not identical.

Where two headings read alike, the source gives them in different places. No end group written: not given here.

The substance RLKRMRKRLKRKLRLWHRKRYK-NH2 [SRP-8] displayed an MIC Salmonella Enteritidis in [1] of 64 µg/mL. In the series on Fusarium solani JCM11383 (JCM11383), this substance had an MIC Fusarium solani of 4 µg/mL. In series [2] (NBRC3134), this substance displayed an MIC Bacillus subtilis of 8 µg/mL. Also, in series [3], the MIC Actinobacillus actinomycetemcomitans is greater than 128 µg/mL. The “MIC Aspergillus niger” value in series [4] (setting [19]) is listed as 16/32. For the same substance, in [5] (setting [19]), the “MIC Cryptococcus neoformans” value is listed as 1/2. In the series on Candida krusei NBRC1395, this substance showed an MIC Candida krusei of 32 µg/mL. The MIC Acinetobacter baumanni in series [6] (JCM6841) came out at 128 µg/mL. The substance also returned an MIC Trichophyton rubrum in series [7] (NBRC9185) of 128 µg/mL. Besides, in series [8], the “Staphylococcus aureus ATP (viability, relative value to negative control)” value was 0.4. The “Pseudomonas aeruginosa ATP (viability, relative value to negative control)” value in [9] was found to be 0.9. Besides, the “Escherichia coli ATP (viability, relative value to negative control)” value in [10] is 1.7. In addition, the MIC Streptococcus pyogenes in [11] was found to be 64 µg/mL. This substance also showed an MIC Alternaria alternata in [12] of 32 µg/mL. In [13] (JCM 1235), this substance yielded an MIC Enterobacter aerogenes of 64 µg/mL. In series [14] (ATCC29213), this substance yielded an MIC Staphylococcus aureus of 16 µg/mL. The MIC Pseudomonas aeruginosa in series [15] (ATCC 27853) was determined as 16 µg/mL. Moreover, the “MIC Staphylococcus epidermidis” value in series [16] is reported as 8/16. Besides, in series [17] (setting [19]), the “MIC Enterobacter cloacae” value is 128< mg/mL. Moreover, the MIC Rhizopus oryzae in [18] (NBRC 31005) stood at 8 µg/mL.
In the case of KLIFLHRLKRELRKRLKRKLR-NH2 [SRP-13], in [1], the MIC Salmonella Enteritidis amounted to 4 µg/mL. The “MIC Fusarium solani” value against Fusarium solani JCM11383 (setting [19]) is 4/8. Moreover, the MIC Bacillus subtilis in series [2] (NBRC3134) was 4 µg/mL. Moreover, the MIC Actinobacillus actinomycetemcomitans in series [3] turned out to be 128 µg/mL. Also, the MIC Aspergillus niger in series [4] (NBRC 9455) amounted to 16 µg/mL. The substance further came in with an MIC Cryptococcus neoformans in series [5] (IFM 46660) of 2 µg/mL. Further, the MIC Candida krusei against Candida krusei NBRC1395 came out at 32 µg/mL. Further, the “MIC Acinetobacter baumanni” value in series [6] (setting [19]) is 16/32. Further, the “MIC Trichophyton rubrum” value in series [7] (setting [19]) was 128/64. Also, the “Staphylococcus aureus ATP (viability, relative value to negative control)” value in series [8] is 2.0. For the same substance, in [9], the “Pseudomonas aeruginosa ATP (viability, relative value to negative control)” value is reported as 2.2. In series [10], the “Escherichia coli ATP (viability, relative value to negative control)” value worked out at 2.2. Further, in [11], the MIC Streptococcus pyogenes was 32 µg/mL. In addition, in series [12], the MIC Alternaria alternata was found to be 64 µg/mL. The “MIC Enterobacter aerogenes” value in series [13] (setting [19]) is listed as 16/64. In [14] (ATCC29213), this substance registered an MIC Staphylococcus aureus of 32 µg/mL. The MIC Pseudomonas aeruginosa in [15] (ATCC 27853) was 16 µg/mL. The “MIC Staphylococcus epidermidis” value in series [16] was 4/8. Further, the “MIC Enterobacter cloacae” value in [17] (setting [19]) was 32/64. This substance also registered an MIC Rhizopus oryzae in series [18] (NBRC 31005) of 8 µg/mL.
In [1], RLKRMRKRLKRKLRLW-NH2 [SRP-17] gave an MIC Salmonella Enteritidis of 8 µg/mL. The substance also came in with an MIC Fusarium solani in the series on Fusarium solani JCM11383 (JCM11383) of 8 µg/mL. In [2] (NBRC3134), this substance registered an MIC Bacillus subtilis of 8 µg/mL. The MIC Actinobacillus actinomycetemcomitans in series [3] was greater than 128 µg/mL. Besides, in series [4] (setting [19]), the “MIC Aspergillus niger” value was 8/16. The MIC Cryptococcus neoformans in series [5] (IFM 46660) turned out to be 2 µg/mL. For the same substance, the MIC Candida krusei against Candida krusei NBRC1395 was 32 µg/mL. Further, in [6] (JCM6841), the MIC Acinetobacter baumanni stood at 128 µg/mL. For the same substance, the “MIC Trichophyton rubrum” value in [7] (setting [19]) is 64/32. Further, in series [8], the “Staphylococcus aureus ATP (viability, relative value to negative control)” value turned out to be 0.3. In addition, in [9], the “Pseudomonas aeruginosa ATP (viability, relative value to negative control)” value stood at 1.0. For the same substance, in [10], the “Escherichia coli ATP (viability, relative value to negative control)” value stood at 0.4. The same substance gave an MIC Streptococcus pyogenes in series [11] of 128 µg/mL. The substance also came in with an MIC Alternaria alternata in series [12] of 32 µg/mL. In series [13] (JCM 1235), this substance yielded an MIC Enterobacter aerogenes of 128 µg/mL. For the same substance, the “MIC Staphylococcus aureus” value in [14] (setting [19]) is listed as 16/32. Further, the “MIC Pseudomonas aeruginosa” value in series [15] (setting [19]) was 32/64. Further, in series [16], the “MIC Staphylococcus epidermidis” value is 4/8. Moreover, the “MIC Enterobacter cloacae” value in series [17] (setting [19]) is 128< mg/mL. Further, in [18] (NBRC 31005), the MIC Rhizopus oryzae was determined as 8 µg/mL.
Consider KLIFLRELRRLRKRLKRKLR-NH2 [SRP-16], for which, in [1], the MIC Salmonella Enteritidis was found to be 4 µg/mL. Besides, in the series on Fusarium solani JCM11383 (setting [19]), the “MIC Fusarium solani” value is 4/8. Further, in [2] (setting [19]), the “MIC Bacillus subtilis” value is recorded as 8/4. This substance had an MIC Actinobacillus actinomycetemcomitans in [3] of 128 µg/mL. Besides, the “MIC Aspergillus niger” value in [4] (setting [19]) was 8/16. Besides, the MIC Cryptococcus neoformans in [5] (IFM 46660) amounted to 2 µg/mL. The substance further had an MIC Candida krusei in the series with Candida krusei NBRC1395 of 32 µg/mL. Further, the MIC Acinetobacter baumanni in series [6] (JCM6841) was determined as 128 µg/mL. Besides, in [7] (setting [19]), the “MIC Trichophyton rubrum” value is listed as 64/32. Besides, the “Staphylococcus aureus ATP (viability, relative value to negative control)” value in series [8] is listed as 0.4. Moreover, the “Pseudomonas aeruginosa ATP (viability, relative value to negative control)” value in series [9] came to 1.0. For the same substance, in series [10], the “Escherichia coli ATP (viability, relative value to negative control)” value is 0.9. Further, in [11], the MIC Streptococcus pyogenes worked out at 32 µg/mL. For the same substance, in series [12], the MIC Alternaria alternata was determined as 64 µg/mL. Besides, the “MIC Enterobacter aerogenes” value in series [13] (setting [19]) is recorded as 16/32. The MIC Staphylococcus aureus in [14] (ATCC29213) amounted to 16 µg/mL. The MIC Pseudomonas aeruginosa in series [15] (ATCC 27853) stood at 16 µg/mL. Further, the “MIC Staphylococcus epidermidis” value in series [16] is recorded as 8/16. The same substance yielded an MIC Enterobacter cloacae in series [17] (JCM 1232) of 64 µg/mL. In addition, the “MIC Rhizopus oryzae” value in series [18] (setting [19]) was 8/16.
